# Results: patent US20240376149A1, “Novel Modulators of GABABR1a” (VIB VZW, priority 2021, published 2024)
# Where a SMILES comes first, the peptide text is derived from it. Where no end group is shown, it is not given here. [ ]: non-standard residue; d: D form. F72 = not defined here
# Tests used:
# [1] = biological target: T1, GABABR1a-SD1 (SD1-FITC-9mer complex) (Homo sapiens, UniProt Q9UBS5); assay: Fluorescence polarization (FP) competition assay with FITC-9mer; assay type: binding; details: peptide at 50 μM; inhibition of FITC-9mer binding to SD1
# T1 construct: The synthetic gene encoding for residues 26-96 of the Sushi1 protein was cloned into a pFloat-SUMO vector; His-SUMO (with 3C protease site) (N, cleaved yes); made in house; host or cells: E. coli BL21(DE3)
# Description: Intrigued by the surprising results of the 5-mer, it was decided to set up a medium- to high-throughput screen to optimize the 5-mer sequence. Several assays were tested to find a reproducible, robust and cost-effective assay that is also suitable for high-throughput screening. A fluorescence polarization (FP) assay was selected. FP measurements are well-known for receptor binding assays. The assay is based on the rotational movement of fluorescently labelled molecules in solution. […] The FP assay was optimized using the FITC labelled sAPP 9-mer (FIG. 1).
# To screen for GABABR1a binders using unlabelled test compounds, the assay was turned into a competition assay using FITC-9mer. […] To validate this inhibitor assay, the IC50 values were determined of the 17-mer, 9-mer, 5-mer as well as those from 3 negative controls: 10-mer, scrambled 17-mer and a scrambled 9-mer (FIG. 2).
# To determine if the peptides of this application were able to disrupt the SD1-9-mer complex, each peptide (in single point or dose-response curve) tested was incubate with SD1 protein for 1 h at RT. After this initially incubation, FITC-9mer was added to the previous mix and incubated during 2 h at RT. The signal intensity was measure in an appropriate plate reader using the following settings: Number of flashes per well: 200; Excitation: F482-16; Dichroic filter: FLP 504; Emission A F530-40; Gain A: 738, Gain B: 736. The assay was conducted in a 384-well plate.
# [2] = biological target: T2, HEK293 cells expressing the ectodomain of GABABR1a comprising SD1 (Homo sapiens, UniProt Q9UBS5); assay: Flow-cytometry cell-based binding assay, competition with biotinylated 9-mer; details: peptide at 100 μM, inhibition of biotin-9mer (10 μM) binding
# T2 construct: HEK293 were transfected with plasmids encoding the ectodomain of GABABR1a (as in Rice et al., 2019); expressed in transfected cells; host or cells: HEK293
# Description: HEK cells expressing GABABR1a-SD1 were incubated with peptides of the application and the binding of 9-mer in the presence of the peptides was measured. The 9-mer peptide is biotinylated and detected with a commercial antibody.
# Next, the top ranking compounds were tested in a cell-based binding assay. HEK293 cells were transformed to express the ectodomain of GABABR1a comprising SD1. In this cell-based assay, SD1 is expressed on the GABABR1a ectodomain and can adopt a more physiological conformation, compared to the purified SD1 protein used in the primary assay (FP assay).
# HEK293 were transfected with plasmids encoding the ectodomain of GABABR1a (as in Rice et al., 2019), carrying a His-tag at the N-terminal. After 24 h of expression, cells were harvested and adjusted to a concentration of 1×10^6 cells/mL in ice-cold 2% FBS/PBS. Incubation with each peptide (in dose-response curve) was carried out at 4° C. for 1 h, followed by incubation with the biotion-9mer (10 μM) peptide during 30 min. Detection antibodies recognizing either His protein or biotin were added for a period of 30 min. The assay plate containing the cells was loaded into the Attune NxT Cytometer, parameters were adjusted accordingly with the cell type and signal intensity. In each experiment, positive and negative control were added to the plate.
# [3] = biological target: T3, sushi domain 1 (SD1) of GABABR1a (Homo sapiens, UniProt Q9UBS5); assay: Isothermal titration calorimetry (ITC) direct binding assay; details: for ITC Kd: peptide titrated into Sushi-1 protein in PBS
# T3 construct: The synthetic gene encoding for residues 26-96 of the Sushi1 protein was cloned into a pFloat-SUMO vector; His-SUMO (with 3C protease site) (N, cleaved yes); made in house; host or cells: E. coli BL21(DE3)
# Excerpt: In contrast to the FP assay, the isothermal titration calorimetry (ITC) assay is a direct binding assay.
# For biophysical and structural biology purposes the Sushi1 protein was expressed in a bacterial expression system. The synthetic gene encoding for residues 26-96 of the Sushi1 protein was cloned into a pFloat-SUMO vector, generating a His-tagged SUMO-Sushi1 fusion protein. The construct also contained a 3C protease cleavage site to remove the His-SUMO-tag. The pFloat-SUMO-Sushi1 plasmid was transformed in BL21(DE3) cells and plated on kanamycin ([…]) containing LB agar plates. A small LB culture, supplemented with […] kanamycin, was inoculated with a single colony of BL21(DE3)(pFloat-SUMO-Sushi1) and grown overnight at 37° C. 1 liter LB cultures were subsequently inoculated with 20 ml of this preculture and grown at 37° C. until OD600 reached 0.8. At this point protein expression was induced using 0.5 mM isopropyl β-D-1-thiogalactopyranoside (IPTG). Cells were incubated further overnight at 20° C. and subsequently harvested by centrifugation (Beckman rotor 8.1000, 5000 rpm, 15 min, 4C). The pellet was resuspended in 20 mM Tris pH 7.5, 500 mM NaCl, 10 mM imidazole, 5 mM β-mercaptoethanol, 0.1 mg/mL 4-(2-aminoethyl) benzenesulfonyl fluoride hydrochloride (AEBSF), 1 μg/mL leupeptine, 50 μg/mL DNasel and 20 mM MgCl2. The cells were lysed using a French press (Constant Systems) at 20 kpsi and the cell debris was removed by centrifugation. The cell lysate was loaded on a Ni-sepharose FF HiLoad column (GE Healthcare), equilibrated in 20 mM Tris pH 7.5, 500 mM NaCl, 10 mM imidazole, 5 mM […]. The bound proteins were eluted using a linear gradient to 500 mM imidazole. Fractions containing the His-SUMO-Sushi1 protein were pooled and dialysed overnight to 20 mM Tris pH 7.5, 150 mM NaCl, while cleaving with 3C protease. The cleaved sample was loaded again on a Ni-sepharose FF HiLoad column, equilibrated in the same buffer. The FT, containing the Sushi1 protein, was concentrated and applied to a BioRad S100 16/60 size exclusion column, equilibrated in 50 mM KPi buffer pH 6.0, 50 mM NaCl.
# (§1) The Sushi-1 protein was dialysed overnight to PBS buffer and diluted to 30 μM in the same buffer. The peptides were resuspended in PBS at a stock concentration of 3 mM and diluted further in the same buffer to 300 μM. ITC experiments were performed on a Microcal ITC200 device. Titrations comprised 26×1.5 μL injections of peptide into protein, with 90 s intervals. An initial injection of ligand (0.5 μL) was made and discarded during data analysis. The data were fitted to a single binding site model using the Microcal LLC ITC200. Original software provided by the manufacturer.
# [4] = test system: acute mouse hippocampal slices, CA3-CA1 Schaffer collateral (SC) synapses; assay: Ex vivo fEPSP short-term facilitation in acute hippocampal slices (multi-electrode array); assay type: cell-based
# Description: The effect of a selection of GABABR1a-SD1 binders on synaptic transmission was tested in an ex vivo experiment using acute mouse hippocampal slices comprising an intact circuit of CA3-CA1 Schaffer collateral (SC) synapses. In short, a burst of 5 stimuli at 20 Hz was applied to Schaffer collaterals to induce short-term facilitation, which inversely correlates with the probability of neurotransmitter release.
# Recordings were done in C57BL/6J mice (2 months old). For tissue preparation, mice were anesthetized with isoflurane and rapidly decapitated to prepare acute 300 μm-thick parasagittal brain slices on a Leica VT1200 vibratome. Slicing was performed in cold sucrose based cutting solution (ACSF) that consisted of (in mM): 87 NaCl, 2.5 KCl, 1.25 NaH2PO4, 10 glucose, 25 NaHCO3, 0.5 CaCl2, 7 MgCl2, 75 sucrose, 1 kynurenic acid, 5 ascorbic acid, 3 pyruvic acid (pH 7.4 with 5% CO2/95% O2). Slices were allowed to recover at 34° C. for 35 min, and subsequently maintained at room temperature for at least 30 min before use. Before recordings, slices were preincubated in artificial cerebrospinal fluid (ACSF, 119 mM NaCl, 2.5 mM KCl, 1 mM NaH2PO4, 11 mM glucose, 26 mM NaHCO3, 4 mM MgCl2 and 4 mM CaCl2, pH 7.4) containing peptide of interest or scrambled/control peptide (1 or 10 uM). Preincubation was performed in the multielectrode array recording chamber (60MEA200/30iR-Ti-gr, Multichannel Systems) for 60 min at 32° C., using custom-made local carbogenation rings (5% CO2/95% 02). Field excitatory post-synaptic potentials (fEPSPs) were recorded from Schaffer collateral-CA1 synapses by stimulating and recording from the appropriate (visually identified) electrodes (MEA-2100, Multichannel Systems). Input-output curves were recorded for each slice by applying single-stimuli ranging from 500 to 2750 mV with 250 mV increments. […] Train stimulations of 10, 20 and 50 Hz (5 stimuli per train) were recorded with 10 minutes intervals. Recordings were processed and analysed using Multi Channel Experimenter software (Multi Channel Systems).
# [5] = biological target: T4, Sushi domain 1 of the human GABA B1a receptor (human, UniProt Q9UBS5 26-96); assay: ITC
# T4 construct: Purified recombinant protein from E. coli; also called SD1; GABABR1a-SD1
# Description: In the mutagenesis experiment of Example 1 we also included an 8-mer lacking position 9.
# as §1, with “ITC₂₀₀.” for “ITC200.”
# T4 sequence (Q9UBS5 26-96 limits assumed): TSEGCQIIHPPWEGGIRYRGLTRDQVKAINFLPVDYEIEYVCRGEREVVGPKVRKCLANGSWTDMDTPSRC
# T1 sequence (Q9UBS5 26-96, one chain of several): as the sequence (Q9UBS5 26-96 limits assumed) above
# T2 sequence (Q9UBS5 20-591 limits assumed): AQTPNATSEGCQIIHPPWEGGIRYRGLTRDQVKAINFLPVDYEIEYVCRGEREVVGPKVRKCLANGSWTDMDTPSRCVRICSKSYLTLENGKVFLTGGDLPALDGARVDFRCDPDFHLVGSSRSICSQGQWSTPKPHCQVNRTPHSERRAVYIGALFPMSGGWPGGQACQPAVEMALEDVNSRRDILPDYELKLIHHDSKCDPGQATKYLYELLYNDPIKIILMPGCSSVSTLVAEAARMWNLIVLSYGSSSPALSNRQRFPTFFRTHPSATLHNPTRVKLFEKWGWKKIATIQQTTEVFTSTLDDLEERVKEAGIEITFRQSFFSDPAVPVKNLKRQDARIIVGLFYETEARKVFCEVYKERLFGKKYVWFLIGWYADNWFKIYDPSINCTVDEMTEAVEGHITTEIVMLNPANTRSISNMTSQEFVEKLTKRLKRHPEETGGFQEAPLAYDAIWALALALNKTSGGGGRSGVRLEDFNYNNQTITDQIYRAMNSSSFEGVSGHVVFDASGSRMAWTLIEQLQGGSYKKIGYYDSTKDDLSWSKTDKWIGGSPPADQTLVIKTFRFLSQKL
molecule,measurement,setting,value
CC[C@H](C)[C@H](NC(=O)[C@H](N)CC(=O)O)C(=O)N[C@@H](Cc1c[nH]c2cc(Cl)ccc12)C(=O)N[C@@H](Cc1c[nH]c2ccccc12)C(=O)N[C@@H](CO)C(=O)O [VIB-0068894],inhibition at 50 µM,[1],96.8%
same,inhibition at 100 µM,[2],84.2%
same,ITC Kd,[3],bound as good as the 17-mer
CC[C@H](C)[C@H](NC(=O)[C@H](N)CC(=O)O)C(=O)N[C@@H](CCc1ccccc1)C(=O)N[C@@H](Cc1c[nH]c2ccccc12)C(=O)N[C@@H](CO)C(=O)O [VIB-0068910],inhibition at 50 µM,[1],88.6%
same,inhibition at 100 µM,[2],54.2%
"CC(C)[C@H](NC(=O)[C@H](CC(=O)O)NC(=O)[C@@H](CO)NC(=O)[C@@H](CC(=O)O)NC(=O)[C@H](N)CC(=O)O)C(=O)N[C@@H](Cc1c[nH]c2ccccc12)C(=O)N[C@@H](Cc1c[nH]c2ccccc12)C(=O)NCC(=O)NCC(=O)O [VIB_P07, {D-ASP}{D-ASP}{D-SER}DVWWGG] (H-[dD][dD][dS]DVWWGG-OH; N-terminus and C-terminus assumed)",Kd,[3],11 µM
"CC(C)[C@H](NC(=O)[C@H](CC(=O)O)NC(=O)[C@H](CO)NC(=O)[C@@H](CC(=O)O)NC(=O)[C@@H](N)CC(=O)O)C(=O)N[C@@H](Cc1c[nH]c2ccccc12)C(=O)N[C@@H](Cc1c[nH]c2ccccc12)C(=O)NCC(=O)NCC(=O)O [VIB_P09, D{D-ASP}SDVWWGG] (H-D[dD]SDVWWGG-OH; N-terminus and C-terminus assumed)",Kd,[3],11 µM
"DDSDVWWG [VIB_P20, DDSDVWWG]",Kd,[3],1.95 µM
"DDSDVWWGGADTDYADG [Peptide 17-mer, DDSDVWWGGADTDYADG]",Ex vivo assay 1 μM (short-term facilitation),"[4]; peptide 1 μM, vs scrambled control peptide, burst of 5 stimuli at 20 Hz, listed as sAPP 17-mer",increased the facilitation
same,Increase in facilitation after preincubation with GABABR antagonist CGP-54626,"[4]; peptide 1 μM, CGP-54626 10 μM preincubation",blocked
same,Ex vivo assay 10 μM (short-term facilitation),"[4]; peptide 10 μM, vs scrambled negative control at 10 μM",statistically significant increase in short-term facilitation
"VIB-0068911: non-natural 5-mer d-I-F72-W-S; d = D-aspartate, F72 = (isoethylmethyl)benzene ([dD]I[F72]WS; not fully specified; printed as d-I-F72-W-S; reading uncertain)",ITC Kd,[3],bound as good as the 17-mer
ADSAVWWGG [VIB_P05],binding result,[5],binds
DDSDVAWGG [VIB_P17],binding result,[5],binds
DDSDVWAGG [VIB_P18],binding result,[5],binds
DDSDAWWGG [VIB_P16],binding result,[5],binds
